Reference: the METLIN SMRT retention time set (Domingo-Almenara et al. 2019)

Experiment: gradient 5% acetonitrile 3 min, to 50% in 2 min, to 85% in 15 min, held 3 min, 100 µL/min
Conditions: column: Zorbax Extend-C18 2.1 x 50 mm; eluents: water / acetonitrile, 0.1% formic acid
Summary of the method: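 Retention times come from adduct peaks that were picked computationally and then checked by hand. The standards, pure and pooled in mixtures of ~100 molecules, were run on a Zorbax Extend-C18 column (2.1 × 50 mm, 1.8 μm) at 100 μL/min with water and acetonitrile, each with 0.1% formic acid. Detection was by quadrupole time-of-flight mass spectrometry in positive and negative ionization mode, with a dead volume of 40 μL and a dwell volume of 900 μL.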

SMILES	RP-LC retention time [s]
CCc1ccc(Nc2nc(C(=O)NCCc3ccco3)nc3ccccc23)cc1	855
Cc1ccccc1-c1noc(-c2nn(-c3cccc(F)c3)ccc2=O)n1	941
Cc1cn(C)c(CC(=O)NC2CCCCCC2)c1C(=O)O	765
COc1ccc(-c2noc(CN3C(=O)COc4ccccc43)n2)cc1	953
COc1ccc(OC)c(Nc2c(-c3ccc(C)cc3)nc3cnccn23)c1	911
CCC1(O)CCC12CCN(C(=O)c1ccsc1)CC2 (stereo not given)	716
O=C(Cn1cnc(-c2ccc(Cl)cc2)cc1=O)NCc1ccccc1OC(F)(F)F	910
CC(NC(=O)c1cccc2[nH]ccc12)C(=O)N1CCCc2ccccc21 (stereo not given)	822
Cc1cc(C)n2nc(SCC(=O)Nc3ccccc3[N+](=O)[O-])nc2n1	686
CCCCNC(=O)Cc1nnc(-c2cccc(F)c2)o1	731
Cn1nc(CN2CCCC2)c2c1CCN(S(=O)(=O)c1ccccc1C(F)(F)F)C2	655
CSc1ccc(-c2noc(CN3C(=O)COc4ccc(C(C)(C)C)cc43)n2)cc1	1300
CCCNC(=O)Cc1c(C)nc2nc(-c3ccc(C(C)(C)C)cc3)nn2c1C	920
CC(=O)Nc1ccc(-n2cnc(C(=O)NCCC3=CCCCC3)c2)nc1	739
COc1ccc(-c2ccc(=O)n(Cc3nc(-c4ccccc4)no3)n2)cc1OC	900
CCOC(=O)c1nc(Nc2ccc(F)cc2Cl)c2ccccc2n1	890
O=C1NC(C(=O)Nc2cccc(Cl)c2)Cn2cccc21 (stereo not given)	721
CCN1C(=O)COc2ccc(-c3nc(NC(=O)c4cc(OC)c(OC)c(OC)c4)sc3C)cc21	1020
O=C(NCCc1ccccc1)Nc1ccc(-c2nc(-c3ccccc3)co2)cc1	1080

SMILES	RP-LC retention time [s]
O=C(C1CCCN(c2ncnc3c2nc2n3CCCCC2)C1)N1CCC(Cc2ccccc2)CC1 (stereo not given)	1000
COc1ccc(NC(=O)c2nc(C3CCC3)oc2C)cc1C(F)(F)F	1170
COc1cccc(CNC(=O)Nc2c(-c3cccc(C)c3)nc3ccccn23)c1	673
Brc1ccccc1-c1nn2c(-c3ccccn3)nnc2s1	836
Fc1ccc(F)c(-c2nc(-c3cccc(-c4ccn[nH]4)c3)no2)c1	966
CN1CCOc2ccc(NC(=O)c3cc(-c4ccc(F)cc4)n[nH]3)cc2C1=O	686
c1ccc2c(N3CCCC3)nnc(-c3nc(C4CC4)no3)c2c1	649
Cc1ccoc1C(=O)N1CCC2(CCC2O)CC1 (stereo not given)	645
O=C(Cn1cccc1-c1nc(-c2ccc3c(c2)OCO3)no1)N1CCc2ccccc21	1090
Cc1cccc(NC(=O)NCC2CCOCC2)c1C	704
Cc1nnc2ccc(-c3noc(-c4ccccc4Br)n3)cn12	908
O=C(Nc1ccccc1)[C@@H]1OCC(=O)N(C2CC2)[C@H]1c1ccccc1	775
CCOc1ccc(-c2cc3c(=O)n(Cc4nc(-c5cccc(F)c5)no4)ccn3n2)cc1	1140
O=S(=O)(CCc1noc(-c2ccc3cc[nH]c3c2)n1)c1ccccc1	912
O=C(CSc1ncc(-c2cccc(Cl)c2)o1)Nc1ccccc1C(F)(F)F	1070
CC(C)CC(=O)N1CC(c2nc(-c3ccccc3)no2)C2(CCOCC2)C1 (stereo not given)	896
Cc1cc(C(=O)N2CCC(c3cc(N)on3)CC2)no1	625
COc1ccccc1CC(=O)N1CCC2(CC1)N=C(c1ccccc1)NO2	791
CN(CC1COCCO1)c1ccc(C(=O)O)cc1NC(=O)c1ccc(Cl)cc1 (stereo not given)	812

The remaining lines, values ahead:

RP-LC retention time [s]	SMILES
533	CCCN1CCN(CCCNC(=O)C2CCN(Cc3cn(C)c4ccc(OC)cc34)CC2)CC1
981	COC(=O)c1ccc(NC(=O)N2CCC(CCOc3ccc(F)cc3)C2)cc1 (stereo not given)
954	Cc1ccc2c(c1)N(C(=O)Cn1cnc(-c3nc(-c4ccccc4)cs3)c1)CCO2
656	CC1Oc2ccccc2OC1C(=O)Nc1cccc(-c2cn3c(n2)SCC3)c1 (stereo not given)
1010	O=C(NCCc1csc(-c2ccccc2)n1)C1CCN(S(=O)(=O)c2ccc(Cl)s2)CC1
792	Cc1cn(C)c(CC(=O)NCCN2CCCc3ccccc32)c1C(=O)O
779	CCC(C)NC(=O)c1ccc2c(ccn2C)c1 (stereo not given)
564	O=C(CCC1CCCN(c2cc(NC3CC3)ncn2)C1)NCCc1ccncc1 (stereo not given)
759	Cc1nc(CCNC(=O)C2CCN(S(=O)(=O)c3ccc(Br)s3)CC2)cs1
808	CCCn1c(=O)sc2cc(S(=O)(=O)N3CCC(C(=O)Nc4ccc(C)cn4)CC3)ccc21
792	Cc1ccccc1NC(=O)NC1CCN(c2ccc(F)cc2)C1=O (stereo not given)
676	O=C(NC1CCN(c2cc(-c3ccccc3)[nH]n2)CC1)c1ccoc1
761	CCc1ccc(C2=C(C)C(N3CCC(NC(=O)CCOC)CC3)=NS2(=O)=O)cc1
925	CC(C)CNC(=O)N1c2ccccc2CC1c1nc(C2CC2)no1 (stereo not given)
696	COc1ccc(CC(=O)N2CCCC2c2c(C)noc2C)cc1OC (stereo not given)
874	CCc1ccc(NC(=O)N2CCC3(CC2)NC(=O)c2cc(C)ccc2N3C)cc1
724	CS(=O)(=O)N1CCC(OC2CCN(C(=O)NCCc3ccccc3)CC2)CC1
924	O=C(Cn1nc2c3cc(-c4ccc(Cl)cc4)nn3ccn2c1=O)N1CCCCC1
657	CC(C)CCNC(=O)NCCn1nnc2cc(C(=O)N3CCCC3)ccc21
669	Cc1nn(-c2ccccc2)cc1C(=O)N1CCC(CC(=O)N2CCOCC2)CC1
756	CCCN1C(=O)c2c(C(=O)NCc3ccccc3)ncn2CC1(C)C(=O)NC1CCCC1 (stereo not given)
980	CCn1cc(-c2nc(CC(=O)Nc3ccccc3C)cs2)c2cccnc21
890	Cc1ccc(-n2c(N3CCC(C(=O)NCCC(C)C)CC3)nc3ccsc3c2=O)cc1
772	CCOC(=O)N1CCC2(CC1)N=C(c1ccc(OCC)cc1)CC(c1ccccc1O)N2 (stereo not given)
627	O=C(Cn1c(=O)c2cccn2c2ccc(F)cc21)NCCCN1CCCCCC1
769	O=C(NC1CCN(c2cc(-c3cccs3)[nH]n2)CC1)c1ccc(F)cc1F

RP-LC retention time [s]	SMILES
596	CCNC(=O)N1CCCC(c2cccc(C(=O)NCCCN3CCCCC3)c2)C1 (stereo not given)
1000	COc1cccc(NC(=O)C2CCCCN2S(=O)(=O)c2ccc(F)cc2)c1 (stereo not given)
812	Cc1ccc2nc(NC(=O)C3CC(=O)N(c4n[nH]c5cccc(F)c45)C3)sc2c1 (stereo not given)
790	CC(NC(=O)C1CCN(C(=O)c2ncn3c2COC(c2ccc(F)cc2)C3)CC1)c1ccc(F)cc1 (stereo not given)
1150	CCCCCCNC(=O)C1CCCN(c2ncc(-c3ccccc3)cn2)C1 (stereo not given)
652	O=C(O)CNC(=O)C1CCN(S(=O)(=O)c2ccc(F)cc2)CC1
749	O=C(NC1CCN(c2cc(-c3cccs3)[nH]n2)CC1)c1ccc(Cl)cc1
595	COc1ccc(NC(=O)Cn2c(N)nc(C)c(C)c2=O)cc1
940	CC(C)CNC(=O)N1CCc2c(c(-c3nc(-c4ccc(F)cc4)no3)nn2C)C1
572	O=C(NCc1cccnc1)C1=C2CCCN2c2ccc(F)cc2S1(=O)=O
1030	CC(C)N1C(=O)C(C)(C(=O)Nc2ccc(F)c(F)c2)Oc2cccnc21 (stereo not given)
819	O=C(NCc1ccco1)c1csc(-c2ccc(N3CCCCC3)nc2)n1
578	COc1ccc(NC(=O)CN2CCC(C(=O)NCc3ccc(F)cc3F)CC2)c(OC)c1
683	O=C(NCCn1nnc2cc(C(=O)N3CCCC3)ccc21)Nc1ccccc1Br
672	Cc1cccc(CNC(=O)CCC2CCN(c3cc(NC4CC4)ncn3)CC2)c1
591	O=S(=O)(Cc1ccccc1Cl)NCCN1CCN(c2ccc(F)cc2)CC1
631	Cc1ccsc1C(=O)N1CCC(N2C[C@H](O)C[C@H]2C(=O)NC2CCCCC2)CC1
780	CCOc1ccc2nc(NC(=O)C3CCN(c4ccc(-n5cccn5)nn4)CC3)sc2c1
590	COc1ccc(C(=O)Nc2nccnc2C(=O)NCCN2CCCCC2)cc1
678	CCc1nc2cc3c(cc2n1CC(=O)Nc1ccc(C)cc1)OCCO3
796	Cc1nn2c(CNC(=O)c3ccccn3)c(-c3ccccc3)nc2s1
781	Cc1cccc(NC(=O)N2CCC(c3nc(C(=O)N4CCCC4)c(C)o3)CC2)c1C
714	CCn1ccc2sc(C)c(C(=O)N3CCN(c4ccc(OC)cc4)CC3)c2c1=O
606	Cc1cc(=O)n(CC(=O)NCc2ccccc2)c(N2CCCC2)n1
788	CCc1nnc(-c2ccc3ccn(CC(=O)Nc4cccc(C(C)=O)c4)c3c2)o1
891	CCOC(=O)c1c(S(=O)(=O)N2CCC(C(=O)Nc3ccccc3OC)CC2)c(C)n(CC)c1C
